{"source": "ChEMBL document CHEMBL1201862", "about": "“PubChem BioAssay data set” (2004)", "key": {"[1]": {"biological_target": "Misshapen-like kinase 1 (Homo sapiens, UniProt Q8N4C8)", "sequence (Q8N4C8 whole entry)": "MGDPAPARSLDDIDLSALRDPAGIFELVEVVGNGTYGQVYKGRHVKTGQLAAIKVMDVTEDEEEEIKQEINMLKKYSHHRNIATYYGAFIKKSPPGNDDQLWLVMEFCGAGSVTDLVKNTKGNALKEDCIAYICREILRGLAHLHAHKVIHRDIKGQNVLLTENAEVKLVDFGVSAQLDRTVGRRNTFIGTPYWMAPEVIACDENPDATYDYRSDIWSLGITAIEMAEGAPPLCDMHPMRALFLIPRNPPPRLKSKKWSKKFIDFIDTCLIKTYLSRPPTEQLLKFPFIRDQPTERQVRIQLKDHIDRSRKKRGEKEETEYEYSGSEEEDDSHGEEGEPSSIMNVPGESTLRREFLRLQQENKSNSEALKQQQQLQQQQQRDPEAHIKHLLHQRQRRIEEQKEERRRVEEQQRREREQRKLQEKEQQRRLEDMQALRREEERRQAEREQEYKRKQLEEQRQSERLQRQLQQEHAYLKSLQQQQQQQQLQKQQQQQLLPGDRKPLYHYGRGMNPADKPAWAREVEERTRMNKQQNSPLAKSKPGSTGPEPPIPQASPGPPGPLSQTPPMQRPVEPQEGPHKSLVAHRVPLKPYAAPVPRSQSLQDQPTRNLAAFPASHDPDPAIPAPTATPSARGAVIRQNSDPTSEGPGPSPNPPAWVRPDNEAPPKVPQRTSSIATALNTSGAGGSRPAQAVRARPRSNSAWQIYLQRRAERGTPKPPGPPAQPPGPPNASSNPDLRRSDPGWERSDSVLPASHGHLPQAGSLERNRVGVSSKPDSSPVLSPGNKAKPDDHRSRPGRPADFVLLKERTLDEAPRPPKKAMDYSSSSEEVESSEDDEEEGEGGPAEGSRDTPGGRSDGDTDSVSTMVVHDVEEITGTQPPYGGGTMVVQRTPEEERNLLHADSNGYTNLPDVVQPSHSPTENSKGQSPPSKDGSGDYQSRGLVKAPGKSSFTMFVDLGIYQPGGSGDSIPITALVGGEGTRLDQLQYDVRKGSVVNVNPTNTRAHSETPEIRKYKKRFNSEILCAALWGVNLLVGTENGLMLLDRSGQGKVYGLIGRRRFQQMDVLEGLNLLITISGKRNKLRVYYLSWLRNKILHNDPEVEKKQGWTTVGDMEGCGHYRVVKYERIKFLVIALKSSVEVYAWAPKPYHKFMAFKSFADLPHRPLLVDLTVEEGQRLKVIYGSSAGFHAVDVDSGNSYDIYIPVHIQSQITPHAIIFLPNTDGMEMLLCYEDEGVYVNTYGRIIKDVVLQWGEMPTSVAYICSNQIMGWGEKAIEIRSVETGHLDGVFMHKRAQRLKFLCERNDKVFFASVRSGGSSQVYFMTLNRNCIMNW", "assay_type": "functional"}, "[2]": {"biological_target": "STE20-like serine/threonine-protein kinase (Homo sapiens, UniProt Q9H2G2)", "assay_type": "functional"}, "[3]": {"biological_target": "Serine/threonine-protein kinase N2 (Homo sapiens, UniProt Q16513)", "sequence (Q16513 whole entry)": "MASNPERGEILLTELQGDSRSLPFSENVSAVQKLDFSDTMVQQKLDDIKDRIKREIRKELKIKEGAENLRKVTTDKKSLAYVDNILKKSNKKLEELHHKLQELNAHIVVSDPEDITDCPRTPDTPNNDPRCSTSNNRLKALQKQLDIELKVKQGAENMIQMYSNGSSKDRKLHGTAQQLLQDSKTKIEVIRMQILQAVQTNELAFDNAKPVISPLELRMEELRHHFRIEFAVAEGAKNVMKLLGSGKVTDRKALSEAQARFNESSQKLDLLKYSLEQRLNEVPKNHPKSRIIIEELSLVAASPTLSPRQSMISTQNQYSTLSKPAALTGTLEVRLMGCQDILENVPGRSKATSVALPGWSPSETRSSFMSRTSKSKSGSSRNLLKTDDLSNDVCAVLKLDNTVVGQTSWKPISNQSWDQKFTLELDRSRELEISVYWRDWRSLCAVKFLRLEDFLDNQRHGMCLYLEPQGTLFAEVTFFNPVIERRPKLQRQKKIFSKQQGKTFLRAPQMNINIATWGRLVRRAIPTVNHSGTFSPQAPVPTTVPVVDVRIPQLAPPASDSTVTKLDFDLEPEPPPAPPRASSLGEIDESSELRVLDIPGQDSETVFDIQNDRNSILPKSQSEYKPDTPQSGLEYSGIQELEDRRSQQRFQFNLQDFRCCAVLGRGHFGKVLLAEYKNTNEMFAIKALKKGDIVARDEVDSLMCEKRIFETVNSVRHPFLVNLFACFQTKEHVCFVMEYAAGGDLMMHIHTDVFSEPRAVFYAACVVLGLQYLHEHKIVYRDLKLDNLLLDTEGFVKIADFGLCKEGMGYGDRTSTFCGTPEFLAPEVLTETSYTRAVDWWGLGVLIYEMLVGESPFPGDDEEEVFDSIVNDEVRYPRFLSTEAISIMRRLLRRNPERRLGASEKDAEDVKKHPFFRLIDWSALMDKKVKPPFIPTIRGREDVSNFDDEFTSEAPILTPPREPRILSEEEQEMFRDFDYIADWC", "assay_type": "functional"}, "[4]": {"biological_target": "Serine/threonine-protein kinase PAK 4 (Homo sapiens, UniProt O96013)", "sequence (O96013 whole entry)": "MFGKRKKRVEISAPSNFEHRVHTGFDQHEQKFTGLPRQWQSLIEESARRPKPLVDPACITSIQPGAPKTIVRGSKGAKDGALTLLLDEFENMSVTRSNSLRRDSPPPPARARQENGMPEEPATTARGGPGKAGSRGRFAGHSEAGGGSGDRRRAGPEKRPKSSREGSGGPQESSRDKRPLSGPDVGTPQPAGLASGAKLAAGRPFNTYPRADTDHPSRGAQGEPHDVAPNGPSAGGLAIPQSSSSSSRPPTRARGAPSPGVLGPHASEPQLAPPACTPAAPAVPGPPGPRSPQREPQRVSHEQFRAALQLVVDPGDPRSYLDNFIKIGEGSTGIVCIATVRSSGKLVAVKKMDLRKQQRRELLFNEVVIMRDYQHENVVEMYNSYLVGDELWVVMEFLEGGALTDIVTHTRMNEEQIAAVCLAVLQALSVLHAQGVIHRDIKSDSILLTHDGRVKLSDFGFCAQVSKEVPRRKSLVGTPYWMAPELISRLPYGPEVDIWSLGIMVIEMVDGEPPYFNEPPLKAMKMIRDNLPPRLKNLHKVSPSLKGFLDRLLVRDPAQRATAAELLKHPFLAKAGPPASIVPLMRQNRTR", "assay_type": "functional"}, "[5]": {"biological_target": "Protein-tyrosine kinase 2-beta (Homo sapiens, UniProt Q14289)", "sequence (Q14289 whole entry)": "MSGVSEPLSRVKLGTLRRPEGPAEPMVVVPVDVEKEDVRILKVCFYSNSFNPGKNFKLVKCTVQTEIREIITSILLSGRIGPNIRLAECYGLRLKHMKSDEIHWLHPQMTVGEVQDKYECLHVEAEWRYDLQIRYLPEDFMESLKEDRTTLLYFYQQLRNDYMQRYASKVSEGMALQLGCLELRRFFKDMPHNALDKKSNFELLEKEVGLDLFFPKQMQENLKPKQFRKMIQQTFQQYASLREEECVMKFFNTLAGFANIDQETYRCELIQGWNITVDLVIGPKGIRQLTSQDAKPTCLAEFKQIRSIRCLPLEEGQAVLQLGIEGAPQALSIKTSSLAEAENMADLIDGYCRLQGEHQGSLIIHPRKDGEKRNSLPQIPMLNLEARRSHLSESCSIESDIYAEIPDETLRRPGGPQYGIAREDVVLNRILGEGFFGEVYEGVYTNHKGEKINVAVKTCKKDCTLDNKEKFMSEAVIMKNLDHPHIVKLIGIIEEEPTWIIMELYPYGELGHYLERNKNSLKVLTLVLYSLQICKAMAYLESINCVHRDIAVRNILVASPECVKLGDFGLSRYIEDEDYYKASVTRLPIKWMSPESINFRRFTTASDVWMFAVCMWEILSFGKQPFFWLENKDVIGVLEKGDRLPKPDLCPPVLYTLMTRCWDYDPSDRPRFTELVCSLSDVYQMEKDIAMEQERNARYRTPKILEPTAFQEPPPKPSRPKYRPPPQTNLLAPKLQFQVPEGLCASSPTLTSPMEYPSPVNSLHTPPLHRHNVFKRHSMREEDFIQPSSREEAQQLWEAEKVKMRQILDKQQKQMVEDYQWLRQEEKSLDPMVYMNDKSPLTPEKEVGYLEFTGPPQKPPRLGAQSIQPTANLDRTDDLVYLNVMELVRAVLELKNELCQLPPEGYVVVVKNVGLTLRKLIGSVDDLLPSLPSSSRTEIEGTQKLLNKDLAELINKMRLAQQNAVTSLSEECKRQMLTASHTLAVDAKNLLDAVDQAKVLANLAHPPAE", "assay_type": "functional"}, "[6]": {"biological_target": "T1, Aminopeptidase N (Plasmodium falciparum FcB1/Columbia, UniProt O96935)", "T1 sequence (O96935 whole entry)": "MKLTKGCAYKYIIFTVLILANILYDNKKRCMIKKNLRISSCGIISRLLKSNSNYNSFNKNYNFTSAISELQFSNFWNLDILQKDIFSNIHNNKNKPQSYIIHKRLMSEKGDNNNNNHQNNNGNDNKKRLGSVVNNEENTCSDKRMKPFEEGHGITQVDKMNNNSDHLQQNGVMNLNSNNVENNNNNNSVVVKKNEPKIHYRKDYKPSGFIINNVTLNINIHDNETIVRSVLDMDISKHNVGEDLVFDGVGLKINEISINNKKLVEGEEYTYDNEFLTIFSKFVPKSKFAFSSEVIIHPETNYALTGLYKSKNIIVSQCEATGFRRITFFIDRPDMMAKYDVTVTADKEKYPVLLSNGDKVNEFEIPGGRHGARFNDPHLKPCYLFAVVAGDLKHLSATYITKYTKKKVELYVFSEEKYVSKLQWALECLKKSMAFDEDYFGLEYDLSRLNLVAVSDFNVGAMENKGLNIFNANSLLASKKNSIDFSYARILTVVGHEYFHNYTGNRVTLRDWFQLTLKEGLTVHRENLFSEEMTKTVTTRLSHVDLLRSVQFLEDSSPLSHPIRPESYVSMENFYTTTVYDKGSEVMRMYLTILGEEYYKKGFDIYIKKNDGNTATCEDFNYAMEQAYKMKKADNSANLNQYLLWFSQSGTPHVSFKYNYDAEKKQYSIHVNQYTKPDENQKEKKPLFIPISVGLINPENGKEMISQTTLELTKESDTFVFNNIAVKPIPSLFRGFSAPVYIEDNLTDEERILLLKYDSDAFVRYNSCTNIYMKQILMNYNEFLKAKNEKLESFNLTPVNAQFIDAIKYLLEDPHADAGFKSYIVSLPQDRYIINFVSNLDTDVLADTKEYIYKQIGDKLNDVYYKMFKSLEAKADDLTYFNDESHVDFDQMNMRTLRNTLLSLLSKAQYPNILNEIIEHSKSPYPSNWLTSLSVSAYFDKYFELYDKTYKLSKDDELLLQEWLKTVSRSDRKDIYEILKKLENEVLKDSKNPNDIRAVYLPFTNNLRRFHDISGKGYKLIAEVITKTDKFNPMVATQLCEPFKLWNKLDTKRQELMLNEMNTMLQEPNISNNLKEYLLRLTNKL", "assay": "malaria alanyl aminopeptidase activity blockers – biochemical, fluorogenic H-Leu-NHMec substrate, 1536-well (AID 1445)", "parameters": "species or system Plasmodium falciparum 3D7, 3D7"}, "[7]": {"biological_target": "T2, Caspase-6 (Homo sapiens, UniProt P55212)", "T2 sequence (P55212 whole entry)": "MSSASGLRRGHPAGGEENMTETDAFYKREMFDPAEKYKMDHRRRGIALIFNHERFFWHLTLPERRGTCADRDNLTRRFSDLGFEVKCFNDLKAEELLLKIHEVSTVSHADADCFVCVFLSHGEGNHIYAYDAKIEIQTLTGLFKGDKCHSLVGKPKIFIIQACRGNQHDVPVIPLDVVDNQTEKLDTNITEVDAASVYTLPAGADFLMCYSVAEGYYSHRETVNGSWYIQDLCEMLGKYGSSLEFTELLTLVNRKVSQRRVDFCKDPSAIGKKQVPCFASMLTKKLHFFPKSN", "assay": "inhibition of CASP6 peptide cleavage – biochemical, VEID-R110 fluorescence, cherry-pick, dose response (AID 720632)"}, "[8]": {"biological_target": "T3, Hexokinase-1 (Homo sapiens, UniProt P19367)", "T3 sequence (P19367 whole entry)": "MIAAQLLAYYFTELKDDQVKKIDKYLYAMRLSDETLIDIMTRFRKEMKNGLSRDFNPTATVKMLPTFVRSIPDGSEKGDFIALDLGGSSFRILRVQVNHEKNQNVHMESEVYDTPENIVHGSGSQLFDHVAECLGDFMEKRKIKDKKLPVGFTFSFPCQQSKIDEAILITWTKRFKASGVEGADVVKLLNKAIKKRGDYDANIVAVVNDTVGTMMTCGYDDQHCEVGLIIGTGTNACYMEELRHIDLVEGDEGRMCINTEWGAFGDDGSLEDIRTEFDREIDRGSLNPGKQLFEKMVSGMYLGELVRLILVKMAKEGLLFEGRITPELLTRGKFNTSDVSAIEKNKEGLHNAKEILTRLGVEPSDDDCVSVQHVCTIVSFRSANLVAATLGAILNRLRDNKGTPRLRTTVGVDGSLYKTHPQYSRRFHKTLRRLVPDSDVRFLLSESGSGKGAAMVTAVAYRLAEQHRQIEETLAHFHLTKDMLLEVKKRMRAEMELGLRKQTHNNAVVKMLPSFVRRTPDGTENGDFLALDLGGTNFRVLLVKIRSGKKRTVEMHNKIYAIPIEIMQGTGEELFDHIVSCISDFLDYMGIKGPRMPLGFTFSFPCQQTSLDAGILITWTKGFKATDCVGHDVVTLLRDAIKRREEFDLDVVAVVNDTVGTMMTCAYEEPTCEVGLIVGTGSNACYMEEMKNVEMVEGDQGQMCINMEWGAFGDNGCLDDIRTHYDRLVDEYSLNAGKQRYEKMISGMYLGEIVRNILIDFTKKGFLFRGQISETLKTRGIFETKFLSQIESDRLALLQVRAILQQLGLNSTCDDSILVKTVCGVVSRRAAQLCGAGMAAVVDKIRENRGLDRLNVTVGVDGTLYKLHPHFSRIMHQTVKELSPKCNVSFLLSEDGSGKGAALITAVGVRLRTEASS", "assay": "hexokinase 1 activity inhibitors, potency – biochemical, set 2, resazurin fluorescence coupled readout, selectivity assay for HKDC1 inhibitor project, SAR follow-up (AID 588356)", "assay_type": "functional"}}, "note": "The source made the active and inactive calls.", "data": [{"smiles": "Cc1n[nH]c2ccc(-c3cncc(OCC(N)Cc4cccc(Cl)c4)c3)cc12", "note": "(stereo not drawn)", "values": [{"measurement": "Ki", "setting": "[1]", "result": "25.1 nM (active)"}, {"measurement": "Ki", "setting": "[2]", "result": "1000 nM (active)"}, {"measurement": "Ki", "setting": "[3]", "result": "15.8 nM (active)"}, {"measurement": "Ki", "setting": "[4]", "result": "31.6 nM (active)"}, {"measurement": "Ki", "setting": "[5]", "result": "501 nM (active)"}]}, {"smiles": "O=C1N=C(NS(=O)(=O)Cc2ccccc2)S/C1=C1\\C(=O)Nc2ccccc21", "values": [{"measurement": "IC50", "setting": "[6]", "result": "17400 nM (active)"}]}, {"smiles": "CC(=O)NC1C(=O)N(CCN2CCOCC2)c2ccc(F)cc21", "note": "(stereo not drawn)", "values": [{"measurement": "AC50", "setting": "[7]", "result": "16000 nM (active)"}, {"measurement": "IC50", "setting": "[8]", "result": "> 80000 nM (inactive)"}]}]}
